Source: PMC4374176 (ACS Chemical Biology, 2014)
Ends that are not written are not given here. Peptide text beside a SMILES is read from it.

What was measured:
AT2R [1] = target: T1, AT2R (Homo sapiens, UniProt P50052); experiment: Whole cell competition binding assay, AT2R-HEK-293 stable cell line; details: for Fold selectivity AT1R/AT2R (IC50AT1R/IC50AT2R): whole cell IC50 values; for fold lower AT2R selectivity in comparison to [Y]6-AII: AT2R/AT1R selectivity relative to [Y]6-AII; for IC50: whole cells, Table S4, read-out: Log IC50 AT2R (converted)
T1 construct: expressed in transfected cells
T1 sequence (P50052 1-363): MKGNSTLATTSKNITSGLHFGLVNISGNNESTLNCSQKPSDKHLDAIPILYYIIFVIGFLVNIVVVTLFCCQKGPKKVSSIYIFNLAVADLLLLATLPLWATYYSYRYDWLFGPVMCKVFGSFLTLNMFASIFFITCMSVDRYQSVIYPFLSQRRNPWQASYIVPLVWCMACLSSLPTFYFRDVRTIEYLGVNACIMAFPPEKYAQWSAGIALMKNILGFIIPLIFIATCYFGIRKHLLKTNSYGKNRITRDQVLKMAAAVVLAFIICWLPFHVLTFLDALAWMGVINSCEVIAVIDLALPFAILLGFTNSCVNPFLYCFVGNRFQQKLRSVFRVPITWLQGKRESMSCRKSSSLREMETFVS
Source text: (§1) Materials. AT2R receptor-specific blocker PD123319 was purchased from Sigma-Aldrich Chemical Co. (St. Louis, MO). Human AGTR2 pcDNA3.1+ was obtained from the UMR cDNA Resource Center (University of Missouri-Rolla, Rolla, MO). All other chemicals were of analytic grade. The AT1aR and AT2R constructs were a kind gift from Lazlo Hunyady (Semmelweis University, Budapest, Hungary;1).
(§2) Mutagenesis. AT2R mutants were generated as described elsewhere.2
Cell culture and transient transfection. HEK-293T cells were maintained at 37 °C in Dulbecco's modified Eagle's medium (DMEM) supplemented with 10% (v/v) fetal bovine serum (FBS), 2 mM glutamine, 100 U/ml penicillin, and 100 µg/ml streptomycin. Cells were transfected with either AT1R (pcDNA3.1), AT2R
(pcDNAI/Amp) or AT2R variants using GeneJuice transfection reagent according to the manufacturer’s instructions. Cells were harvested 48 hours after transfection, crude membranes were prepared and resuspended in binding buffer (50 mM Tris-HCl pH 7.4, 100 mM NaCl, 10 mM MgCl2, 1mM EDTA, 0.2% BSA and 0.025% Bacitracin, protease inhibitors) at a protein concentration of 3.3 μg/μl as determined by the amido black protein assay. For whole cells assays, HEK-293 cells stably transfected with either AT1R or the AT2R (kindly supplied by Professor W. Thomas, University of Queensland) were used. These cells were grown to approximately 80% confluence and were then re-plated into 48 well plates at 1x10^5 cells/well and grown for 48 hours at 37°C for a whole cell competition binding assay, as described previously.4 Minor differences between the binding assays performed on isolated membrane preparation and whole cells are probably due to the loss of G-protein in the former.5 PC12W cells, a substrain from a clonal isolation of a rat adrenal chromaffin cell tumor, were cultured in DMEM supplemented with 10% FBS, 100 units/ml penicillin and 100μg/ml streptomycin (Invitrogen, Carlsbad, CA) as previously described.6 The cells were incubated in a 5% CO2 humidified incubator at 37°C. Preparation of recombinant replication-deficient adenovirus containing the human AT2R coding region was carried out by VECTOR BIOLABS (Philadelphia, PA).
For gene transduction with adenoviral vectors cells were seeded at 1.2 x 10^5 cells per well in a 6-well plate. After 24 hours, cells were incubated at 37°C for 6 hours in serum-free DMEM containing adenoviral vectors (Ad-AT2R 30 multiplicity of infection (MOI)), and shaken lightly every fifteen minutes. After 6 hr incubation, cells were cultured in 10% FBS containing DMEM at 37°C, 5% CO2 for an additional 24 hours.
Cells were then trypsinized and subcultured at a density of 2 x 10^3 cells per well on a 24-well plate. For the evaluation of the effect of [Y]6-AII analogue on the neurite outgrowth of PC12W cells, at 24 hours after subculture, control cells and the AT2R […]
Radioligand binding assays. Saturation curves on cell membranes were obtained using 10 μg protein per data point and a range of *125I]-AII (Amersham) concentration […]
(§3) 0-10 nM (8 data points in triplicate). Non-specific binding was determined in […]
Competition assays were performed using a concentration […]
the Figure 3. Samples were incubated for 2 hours at 4°C. Receptor-bound and free radioligand were separated by filtration through Whatman GF/B filters, pre-soaked with 0.3% polyethylamine. The filters were washed with 5 ml of ice-cold binding buffer and transferred to scintillation tubes. Radioactivity was counted on a Beckman LS6000 liquid scintillation counter and data were analyzed by non-linear regression using Prism software (GraphPad). Ki values were calculated according to the Cheng […]
Experiments on whole cells were performed in both AT1R- and AT2R-HEK-293 stable cell lines, as previously described in detail4 with minor modifications. Novel peptides and references compounds, CGP42112 and candesartan, were examined for their ability to inhibit specific binding of [125I]-Ang II, and nonspecific binding was determined using 10μM cold Ang II. […]

PAR4 receptor = test system: PAR4 receptor; design: method as in Faruqi T., et al. [12]; details: ref Faruqi T., et al. [12]; cited from earlier work
PAR1 receptor = test system: PAR1 receptor; design: method as in Faruqi T., et al. [12]; details: ref Faruqi T., et al. [12]; cited from earlier work
AT1R = target: T2, AT1R (Rattus norvegicus, UniProt P25095); experiment: [125I]-AII radioligand binding on isolated membranes, AT1R; details: competition with [125I]-AII, ligand concentration range 6.4 x 10-12-2.5 x 10^-6 M
T2 construct: expressed in transfected cells; host or cells: HEK-293T, transient, crude membranes
T2 sequence (P25095 1-359): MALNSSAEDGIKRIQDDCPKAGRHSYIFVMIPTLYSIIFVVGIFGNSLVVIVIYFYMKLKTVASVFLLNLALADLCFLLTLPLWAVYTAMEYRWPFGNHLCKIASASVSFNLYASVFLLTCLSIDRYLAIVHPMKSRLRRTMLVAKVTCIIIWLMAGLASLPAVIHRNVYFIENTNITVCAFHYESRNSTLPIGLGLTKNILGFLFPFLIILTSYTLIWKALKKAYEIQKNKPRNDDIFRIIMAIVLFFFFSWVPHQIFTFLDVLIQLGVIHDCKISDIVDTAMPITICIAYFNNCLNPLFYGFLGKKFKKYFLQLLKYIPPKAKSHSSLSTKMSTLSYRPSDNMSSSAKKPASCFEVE

AT2R [2] = experiment: [125I]-AII radioligand binding on isolated membranes, wild type AT2R; details: saturation assay, membranes of transfected HEK-293T cells, 2 hours on ice
Source text: as §1, §2
Cell culture and transient transfection. HEK-293T cells were maintained at 37 °C in Dulbecco's modified Eagle's medium (DMEM) supplemented with 10% (v/v) fetal bovine serum (FBS), 2 mM glutamine, 100 U/ml penicillin, and 100 µg/ml streptomycin. […]
(§4) (pcDNAI/Amp) or AT2R variants using GeneJuice transfection reagent according to the manufacturer’s instructions. Cells were harvested 48 hours after transfection, crude membranes were prepared and resuspended in binding buffer (50 mM Tris-HCl pH 7.4, 100 mM NaCl, 10 mM MgCl2, 1mM EDTA, 0.2% BSA and 0.025% Bacitracin, protease inhibitors) at a protein concentration of 3.3 μg/μl as determined by the amido black protein assay. […]
as §3
the Figure 3. […] Radioactivity was counted on a Beckman LS6000 liquid scintillation counter and data were analyzed by non-linear regression using Prism software (GraphPad). […]

[3] = test system: AT2R-overexpressing PC12W cells; experiment: Neurite outgrowth in AT2R-overexpressing PC12W cells; assay type: cell-based, rat; details: Ad-AT2R transduced PC12W cells, 1 nM, 24 h stimulation; dose-dependent in the range of 1 pM to 100 nM
Method: Figure 3 (a) Competition binding assays of [Y]^6-AII analogue to AT1R, AT2R wild type, and mutants: AT1R, open circle; wild type AT2R, black circles; AT2R-Y189A, blue diamonds; AT2R-Y189N, green triangle; AT2R-F272(6.51)A, red square; AT2R-F272(6.51)H, orange triangle. Kd and Ki values are given in Supplementary Table S3. […] The neurite outgrowth-positive cells were defined as the cells with neurite length longer than their cell diameters. This experiment was carried out in triplicate and repeated twice.
as §1
Mutagenesis. AT2R mutants were generated as described elsewhere.2 […]
as §4

DRVYIFPF [[F]^6-AII, D1-R2-V3-Y4-I5-F6-P7-F8] [listing 1 of 2 here]
Fold selectivity AT1R/AT2R (IC50AT1R/IC50AT2R) (AT2R [1]): 4786 fold
fold lower AT2R selectivity in comparison to [Y]6-AII (AT2R [1]): ~4 fold

CC[C@H](C)[C@H](NC(=O)[C@H](Cc1ccc(O)cc1)NC(=O)[C@@H](NC(=O)[C@H](CCCNC(=N)N)NC(=O)[C@@H](N)CC(=O)O)C(C)C)C(=O)N[C@@H](Cc1ccc([N+](=O)[O-])cc1)C(=O)N1CCC[C@H]1C(=O)N[C@@H](Cc1ccccc1)C(=O)O [[4-NO2-F]^6-AII, D1-R2-V3-Y4-I5-(4-NO2-F)6-P7-F8] (HELM PEPTIDE1{D.R.V.Y.I.[O=C([C@H](Cc1ccc([N+](=O)[O-])cc1)N[*:1])[*:2]].P.F}$$$$V2.0)
Fold selectivity AT1R/AT2R (IC50AT1R/IC50AT2R) (AT2R [1]): 694 fold
fold lower AT2R selectivity in comparison to [Y]6-AII (AT2R [1]): 26 fold
IC50 (AT2R [1]): 4.92 nM

GFPGKF
PAR4 receptor activity (PAR4 receptor): 53
PAR1 receptor activity (PAR1 receptor): 35

CCOc1nc2cccc(C(=O)O)c2n1Cc1ccc(-c2ccccc2-c2nnn[nH]2)cc1 [Candesartan, candesartan]
IC50 (AT2R [1]): 13500 nM

DRVYIYPF [[Y]^6-AII, D1-R2-V3-Y4-I5-Y6-P7-F8]
Ki AT1R (AT1R): No detectable competitive binding
Fold selectivity AT1R/AT2R (IC50AT1R/IC50AT2R) (AT2R [1]): 18,000 fold

CC[C@H](C)[C@H](NC(=O)[C@H](Cc1ccc(O)cc1)NC(=O)[C@@H](NC(=O)[C@H](CCCNC(=N)N)NC(=O)[C@@H](N)CC(=O)O)C(C)C)C(=O)N[C@@H](Cc1ccc(OP(=O)(O)O)cc1)C(=O)N1CCC[C@H]1C(=O)N[C@@H](Cc1ccccc1)C(=O)O [[4-OPO3H2-F]^6-AII, D1-R2-V3-Y4-I5-(4-OPO3H2-F)6-P7-F8] (HELM PEPTIDE1{D.R.V.Y.I.[O=C([C@H](Cc1ccc(OP(=O)(O)O)cc1)N[*:1])[*:2]].P.F}$$$$V2.0)
Ki AT1R (AT1R): No detectable competitive binding
Fold selectivity AT1R/AT2R (IC50AT1R/IC50AT2R) (AT2R [1]): 4479 fold
IC50 (AT2R [1]): 9.57 nM

[125I]-AII: radioiodinated AII, radioligand of the binding assays (DRVYIHPF; also: 125I label, position not given here; UniProt P01019 25-32, looked up)
Kd (AT2R [2]): 2.3 nM

CC[C@H](C)[C@H](NC(=O)[C@H](Cc1ccc(O)cc1)NC(=O)[C@@H](NC(=O)[C@H](CCCNC(=N)N)NC(=O)[C@@H](N)CC(=O)O)C(C)C)C(=O)N[C@@H](Cc1c[nH]cn1)C(=O)N1CCC[C@H]1C(=O)N[C@@H](Cc1ccccc1)C(=O)O [AII]
Kd (AT2R [2]): 2.3 nM
neurite outgrowth [3]: significantly stimulated neurite outgrowth

GYPGKF
PAR4 receptor activity (PAR4 receptor): 55
PAR1 receptor activity (PAR1 receptor): 0

G(F)PGKF
PAR4 receptor activity (PAR4 receptor): 61
PAR1 receptor activity (PAR1 receptor): 111

CC[C@H](C)[C@H](NC(=O)[C@@H]1CCCN1C(=O)[C@H](Cc1c[nH]cn1)NC(=O)[C@H](CCCCNC(=O)[C@H](CCCN=C(N)N)NC(=O)OCc1ccccc1)NC(=O)[C@H](Cc1ccc(O)cc1)NC(=O)c1cccnc1)C(=O)O [CGP42112] (HELM PEPTIDE1{[O=C(c1cccnc1)[*:2]].Y.K.H.P.I}|PEPTIDE2{[O=C(OCc1ccccc1)[*:2]].R}$PEPTIDE1,PEPTIDE2,3:R3-2:R2$$$V2.0)
IC50 (AT2R [1]): 0.558 nM

DRVYIFPF [[F]^6-AII, D1-R2-V3-Y4-I5-F6-P7-F8] [listing 2 of 2 here]
IC50 (AT2R [1]): 1.4 nM
